Assay [1] has as its system MiaPaCa2. Kind of assay: Induction of myristoylated AKT2 M225G mutant Ser473 hyperphosphorylation expressed in MiaPaCa2 cells at 2.5 uM after 30 mins by immunoblotting. It is filed as cell-based.
Assay [2] has as its system RAC-alpha serine/threonine-protein kinase (Homo sapiens), P31749 [M227G]. Kind of assay: Induction of mCherry tagged AKT1 M227G Thr308 hyperphosphorylation expressed in HEK293 cells at 2.5 uM after 30 mins by immunoblotting. It counts as cell-based.
Assay [3] deals with RAC-alpha serine/threonine-protein kinase (Homo sapiens), P31749 [M227G,D292A]. Description: Induction of myristoylated AKT1 M227G and kinase dead D292A mutant Ser473 hyperphosphorylation expressed in PC3 cells at 2.5 uM after 30 mins by immunoblotting. It counts as cell-based. As to conditions: PC-3.
For assay [4], the system named is RAC-alpha serine/threonine-protein kinase (Homo sapiens), P31749 [M227G]. Description: Induction of myristoylated AKT1 M227G mutant Ser473 hyperphosphorylation expressed in HEK293T cells at 2.5 uM after 30 mins pretreated with PDK1 inhibitor BX-795 for 10 mins before compound addition by immunoblotting. It counts as cell-based. As to conditions: HEK-293T.
Assay [5] has the same test system. Kind of assay: Induction of myristoylated AKT1 M227G mutant Thr308 hyperphosphorylation expressed in HEK293T cells at 2.5 uM after 30 mins pretreated with mTOR kinase inhibitor PP242 for 10 mins before compound addition by immunoblotting. It is filed as cell-based. As to conditions: HEK-293T.
For a further assay, the system named is HEK-293T. Kind of assay: Induction of myristoylated AKT3 M229G mutant Thr308 hyperphosphorylation expressed in HEK293T cells at 2.5 uM after 30 mins pretreated with pan-PI3K inhibitor PIK90 for 10 mins before compound addition by immunoblotting. It counts as cell-based.
Assay [6] has as its system RAC-alpha serine/threonine-protein kinase (Homo sapiens), P31749 [M227G]. Description: Induction of membrane localized myristoylated AKT1 M227G mutant Ser473 hyperphosphorylation expressed in HEK293T cells at 2.5 uM after 30 mins by immunoblotting. It is filed as cell-based. To be noted: HEK-293T.
Assay [7] has as its system MiaPaCa2. Description: Induction of myristoylated AKT2 M225G and kinase dead D289A mutant Thr308 hyperphosphorylation expressed in MiaPaCa2 cells at 2.5 uM after 30 mins by immunoblotting. It counts as cell-based.
The target of assay [8] is Ribosomal protein S6 kinase beta-1 (Homo sapiens, UniProt P23443). Kind of assay: Inhibition of S6K1.

In ChEMBL document CHEMBL1250448, “Inhibitor hijacking of Akt activation” (Nat Chem Biol, 2009) one finds Activity and IC50 data, which are given here for two molecules.

The structures appear in SMILES notation. Active and inactive are the calls of the source. No cut-off for these calls is given here.

RAC-alpha serine/threonine-protein kinase (Homo sapiens), P31749 [M227G], sequence (P31749 whole entry M227G): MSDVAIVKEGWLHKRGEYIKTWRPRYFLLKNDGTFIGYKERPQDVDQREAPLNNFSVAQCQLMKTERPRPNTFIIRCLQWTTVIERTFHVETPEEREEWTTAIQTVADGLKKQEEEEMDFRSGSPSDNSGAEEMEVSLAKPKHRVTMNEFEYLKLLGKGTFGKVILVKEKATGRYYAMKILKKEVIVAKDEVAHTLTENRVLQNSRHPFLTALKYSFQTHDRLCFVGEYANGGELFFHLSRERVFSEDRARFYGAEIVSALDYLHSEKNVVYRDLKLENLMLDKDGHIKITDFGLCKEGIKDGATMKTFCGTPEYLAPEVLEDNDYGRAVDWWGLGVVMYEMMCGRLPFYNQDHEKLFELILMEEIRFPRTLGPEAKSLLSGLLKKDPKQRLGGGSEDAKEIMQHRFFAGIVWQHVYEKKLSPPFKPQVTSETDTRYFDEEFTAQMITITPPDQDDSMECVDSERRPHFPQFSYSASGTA
RAC-alpha serine/threonine-protein kinase (Homo sapiens), P31749 [M227G,D292A], sequence (P31749 whole entry M227G/D292A): as the sequence (P31749 whole entry M227G) above, with D292A counted along it
Ribosomal protein S6 kinase beta-1, sequence (P23443 whole entry): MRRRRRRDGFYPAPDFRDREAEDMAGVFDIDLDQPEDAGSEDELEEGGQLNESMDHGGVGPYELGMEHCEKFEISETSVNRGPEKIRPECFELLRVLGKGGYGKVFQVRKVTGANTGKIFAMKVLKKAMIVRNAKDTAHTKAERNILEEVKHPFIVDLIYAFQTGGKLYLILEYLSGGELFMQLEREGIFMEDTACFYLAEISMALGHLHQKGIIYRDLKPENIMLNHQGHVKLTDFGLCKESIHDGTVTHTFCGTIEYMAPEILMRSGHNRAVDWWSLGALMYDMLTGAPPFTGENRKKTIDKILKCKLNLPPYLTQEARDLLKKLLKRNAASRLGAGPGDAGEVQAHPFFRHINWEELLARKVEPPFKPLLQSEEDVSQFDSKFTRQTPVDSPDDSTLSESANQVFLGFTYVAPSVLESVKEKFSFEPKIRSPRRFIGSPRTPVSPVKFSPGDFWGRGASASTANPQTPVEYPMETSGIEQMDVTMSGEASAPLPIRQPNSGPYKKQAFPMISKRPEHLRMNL

For the molecule `CCCc1cc(-c2cncc(OC[C@@H](N)Cc3c[nH]c4ccccc34)c2)cc2c(C)n[nH]c12`, the result (in the assay on MiaPaCa2 [1]; in assay [2]; in assay [3]; in assay [5]; in assay [6]; with MiaPaCa2 [7]) was Active. Also, the result (in assay [4]; with HEK-293T) was inactive.
In assay [8], `COc1ccccc1N1CCN(c2ncnc3[nH]nc(Br)c23)CC1` showed an IC50 of 9.1 nM.
